Assays:
[1] = target: T1, AII receptors (cell surface membrane fraction, guinea pig adrenal gland) (Cavia porcellus, UniProt Q9WV26); experiment: Test A: displacement of radiolabelled AII binding from guinea pig adrenal membranes; conditions: in vitro, read-out: IC50 (concentration for 50% displacement of radiolabelled AII binding)
T1 construct: the source of cell surface membranes is the guinea pig adrenal gland; from tissue; host or cells: guinea pig adrenal gland, cell surface membrane fraction
T1 sequence (Q9WV26 1-359): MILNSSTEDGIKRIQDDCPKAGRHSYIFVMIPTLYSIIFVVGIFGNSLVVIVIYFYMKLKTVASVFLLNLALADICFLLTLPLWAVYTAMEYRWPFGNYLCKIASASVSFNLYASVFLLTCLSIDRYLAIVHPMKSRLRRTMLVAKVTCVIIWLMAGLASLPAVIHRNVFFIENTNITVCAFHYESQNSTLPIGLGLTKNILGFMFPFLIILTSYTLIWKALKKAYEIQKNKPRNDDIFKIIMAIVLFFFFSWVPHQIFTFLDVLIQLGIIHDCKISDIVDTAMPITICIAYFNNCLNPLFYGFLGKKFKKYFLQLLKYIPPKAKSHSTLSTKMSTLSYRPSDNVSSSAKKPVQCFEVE
Experimental: This in vitro procedure involves the incubation of the test compound initially at a concentration of 100 micromolar (or less) in a buffered mixture containing fixed concentrations of radiolabelled AII and a cell surface membrane fraction prepared from a suitable angiotensin target tissue. In this test, the source of cell surface membranes is the guinea pig adrenal gland which is well known to respond to AII. Interaction of the radiolabelled AII with its receptors (assessed as radiolabel bound to the particulate membrane fraction following removal of unbound radiolabel by a rapid filtration procedure such as is standard in such studies) is antagonized by compounds which also bind to the membrane receptor sites and the degree of antagonism (observed in the test as displacement of membrane-bound radioactivity) is determined readily by comparing the receptor-bound radioactivity in the presence of the test compound at the specified test concentration with a control value determined in the absence of the test compound. Using this procedure compounds showing at least 50% displacement of radiolabelled AII binding at a concentration of 10^-4 M are retested at lower concentrations to determine their potency. […]

[2] = test system: angiotensin II-induced pressor responses; experiment: Test C: in vivo antagonism of angiotensin II-induced pressor responses in rats; conditions: iv, rat, i.v. administration
Experimental: This in vivo test involves using terminally-anaesthetised or conscious rats in which an arterial catheter has been implanted under anaesthesia for the measurement of changes in blood pressure. The AII antagonistic effects of the test compound following oral or parenteral administration, are assessed against angiotensin II-induced pressor responses. To ensure that the effect is specific, the effect of the test compound on vasopressin-induced pressor responses may also be determined in the same preparation.

Compound: Cc1cc(OC(C)c2ccc(-c3ccccc3-c3nnn[nH]3)cc2)c2ccccc2n1.Cl (centres unmarked) [Example 1, 2-methyl-4-[1-(2'-(1H-tetrazol-5-yl)biphenyl-4-yl)ethoxy]quinoline hydrochloride]
- IC50 [1]: 40 nM
- ED50 [2]: 0.18 mg/kg

Reference: patent publication US5369114A, “Biphenylene branched alkyleneoxy quinolines” (Imperial Chemical Industries PLC, priority 1990, dated 1994)
